Patent US8034790B2, “Use of MDA-7 to inhibit pathogenic infectious organisms” (priority 2003, dated 2011)

B1: MDA-7 containing supernatant: MDA-7 containing supernatant from stably expressing 293-mda7 cells (protein, UniProt Q13007 52-206, looked up)
Interleukin-24: QEFHFGPCQVKGVVPQKLWEAFWAVKDTMQAQDNITSARLLQQEVLQNVSDAESCYLVHTLLEFYLKTVFKNYHNRTVEVRTLKSFSTLANNFVLIVSQLQPSQENEMFSIRDSAHRRFLLFRRAFKQLDVEAALTKALGEVDILLTWMQKFYKL
modifications: cell culture supernatant
notes: MDA-7 containing supernatant from stably expressing 293-mda7 cells
B2: BacM: MDA-7 protein made in insect cells using baculovirus vectors (protein, UniProt Q13007 52-206, looked up)
Interleukin-24: B1 Interleukin-24
modifications: insect cell expressed
notes: MDA-7 protein made in insect cells using baculovirus vectors
B3: MDA-7: protein of 206 amino acids (SEQ ID NO: 2) encoded by mda-7 cDNA (protein, listed as Homo sapiens)
chain: MNFQQRLQSLWTLARPFCPPLLATASQMQMVVLPCLGFTLLLWSQVSGAQGQEFHFGPCQVKGVVPQKLWEAFWAVKDTMQAQDNITSARLLQQEVLQNVSDAESCYLVHTLLEFYLKTVFKNYHNRTVEVRTLKSFSTLANNFVLIVSQLQPSQENEMFSIRDSAHRRFLLFRRAFKQLDVEAALTKALGEVDILLTWMQKFYKL

Key:
H1299 cells = assay: Cell viability / cell killing (trypan blue exclusion) in H1299 cells; assay type: cell-based, human; settings: for effect on cell killing by Ad-mda7 / cytotoxicity of secretion inhibitor alone / effect on cell killing due to Ad-luc or Ad-endostatin / cell killing by MDA-7 protein applied to cells: H1299 cells; for effect on cell killing by Ad-mda7: combination of Ad-mda7 and secretion inhibitor; for cytotoxicity of secretion inhibitor alone: dose that blocks MDA-7 secretion; for effect on cell killing due to Ad-luc or Ad-endostatin: p>0.05; for cell killing by MDA-7 protein applied to cells: viability after 3 days, EM 20-100 ng/ml, BacM 100 ng/ml, supernatant 10 and 100 ng/ml
Protocol: Construction and purification of replication-deficient human type 5 Adenovirus (Ad5) carrying the mda-7 gene was described previously (Mhashilkar et al., 2001). Cell lines were infected with Ad-mda7 or Ad-luc with indicated MOIs. Cells were plated at 10^5-10^6 cells/well in a 6-well plate format for protein expression, trypan-blue exclusion assay or apoptosis assays. For transfection with pShooter vectors, 1 μg of plasmid DNA was used to transfect cells using lipofectamine protocol as described (Mhashilkar et al., 2003).
Cell viability was determined by trypan blue exclusion assay or Live/Dead assay. Cells were trypsinized and a small aliquot was suspended 1:1 volume with 0.1% trypan blue. Total cell numbers and cell viability counts were assessed using a hemocytometer under light microscopy. For Live/Dead assay (Molecular Probes, Eugene Oreg.) cells were plated in chamber slides (Nunc) and then treated with pShooter-plasmid vectors or with Ad− vectors. Two-four days later the cells were treated with the probes, Calcein AM and Ethidium homodimer (both at 5 uM final conc. in PBS), for 30 minutes and then live (green) and dead (red) cells were counted via fluorescence microscopy. All assays were performed at least three times.

endostatin = assay: Endostatin secretion from Ad-endostatin treated H1299 cells; assay type: cell-based, human; settings: H1299 cells treated with Ad-endostatin
From the text: To address whether apoptosis induction is due to intracellular MDA-7 or is simply a non-specific effect due to protein accumulation in the ER, we performed similar experiments using an adenoviral vector encoding endostatin as a control glycosylated secreted protein.

MDA-7 protein = MDA-7 protein expression and secretion by western blot (cell lysates and supernatants); assay type: cell-based, human; settings: Ad-mda7 treated H1299 cells
Protocol: Cell lysates ([…]) were suspended in 500 μl of Laemmli buffer with 5% 2-mercapto-ethanol (2ME) or supernatants (1:1 mixing with Laemmli buffer+2ME), were analyzed by SDS gel electrophoresis and western blot analysis. Expression of various proteins was determined by using the following primary antibodies: rabbit or mouse anti-human MDA-7 (Introgen Therapeutics, Inc), goat anti-human BiP/GRP-78, rabbit anti-human GADD34, goat anti-human PP2A, goat anti-human PERK, rabbit anti-human XBP-1 (Santa Cruz Biotechnologies, Santa Cruz, Calif.), rabbit anti-human caspase 7 and caspase-9 (Cell Signaling Technology, Beverly, Mass.). Antibodies against beta-actin, and alpha-tubulin were purchased from Sigma. Following incubation with horseradish peroxidase-labeled secondary antibody (Amersham Biosciences, Piscataway, N.J.) the proteins were visualized on enhanced chemiluminescence film (Hyperfilm, Amersham Biosciences, Piscataway, N.J.) by application of Amersham's enhanced chemiluminescence western blotting detection system. All westerns were performed 2-4 times.
H1299 cells were treated with 1000 vp/cell Ad-mda7 and the indicated concentrations of tunicamycin. Cells were harvested 24 hr later and analyzed for intracellular and secreted MDA-7 protein by western blot and apoptosis via Annexin V assay. Control cultures of cells treated with only tunicamycin were also assessed for apoptosis (Tun. Toxicity).

Molecule	effect on cell killing by Ad-mda7 (H1299 cells)	cytotoxicity of secretion inhibitor alone (H1299 cells)	effect on cell killing due to Ad-luc or Ad-endostatin (H1299 cells)	effect on endostatin secretion (endostatin)	cell killing by MDA-7 protein applied to cells (H1299 cells)	further results
C[C@H]1CCC/C=C/[C@@H]2C[C@H](O)C[C@H]2[C@H](O)/C=C/C(=O)O1 [BFA, Brefeldin A]	slightly enhanced cell killing	not cytotoxic	Neither BFA nor tunicamycin significantly modulated cell killing	potently blocked endostatin secretion	–	inhibition of MDA-7 secretion (MDA-7 protein; 1 μg/ml BFA): completely block MDA-7 secretion; concentration required to completely block secretion of MDA-7 protein (MDA-7 protein): less than 1 μg/ml
Tunicamycin	slightly enhanced cell killing	not cytotoxic	Neither BFA nor tunicamycin significantly modulated cell killing	potently blocked endostatin secretion	–	reduction of secreted MDA-7 (MDA-7 protein; 1 μg/ml tunicamycin): > 60%; inhibition of MDA-7 secretion (MDA-7 protein; 2 μg/ml tunicamycin): completely blocked secretion
B1	–	–	–	–	did not induce cell death	cell death above background levels (H1299 cells; supernatant from stably expressing 293-mda7 cells applied to H1299 cells, 10 and 100 ng/ml, 3 days): < 10%
B2	–	–	–	–	failed to induce significant killing	–
B3	–	–	–	–	–	cell killing (H1299 cells; H1299 cells treated with MDA-7 protein and then transduced with Ad-luc): Only background killing was observed; anti-angiogenic activity, potency relative to endostatin (Anti-angiogenic activity): 50 fold
